In US6274715A, “Tricyclic erythromycin derivatives” (priority 1997, dated 2001):
Converted amounts (≈) assume the structure as drawn.

Assays:
Assay type in all cases: cell-based
[1] = tested on: STAPHYLOCOCCUS AUREUS ATCC 6538P; test: In vitro antibacterial activity, MIC, BHI agar dilution; details: S. aureus ATCC 6538P, 35-37° C., 20 to 24 hours, unit assumed
[2] = tested on: STAPHYLOCOCCUS AUREUS A5177; test: as above; details: S. aureus A5177, unit assumed
[3] = tested on: STAPHYLOCOCCUS AUREUS A-5278; test: as above; details: S. aureus A-5278, unit assumed
[4] = tested on: STAPHYLOCOCCUS AUREUS CMX 642A; test: as above; details: S. aureus CMX 642A, unit assumed
[5] = tested on: STAPHYLOCOCCUS AUREUS NCTC10649M; test: as above; details: S. aureus NCTC10649M, unit assumed
[6] = tested on: STAPHYLOCOCCUS AUREUS CMX 553; test: as above; details: S. aureus CMX 553, unit assumed
[7] = tested on: STAPHYLOCOCCUS AUREUS 1775; test: as above; details: S. aureus 1775, unit assumed
[8] = tested on: STAPHYLOCOCCUS EPIDERMIDIS 3519; details: S. epidermidis 3519; BHI agar; unit assumed
EN[…] ATCC 8043 = test: In vitro antibacterial activity, MIC, BHI agar dilution; details: E. faecium ATCC 8043, unit assumed
Method in brief: (§1)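 Agar dilution in BHI: plates inoculated with 1:100 dilutions of organisms (1:10 for Micrococcus and Streptococcus), incubated 20-24 h at 35-37° C, then inspected for the lowest inhibitory concentration against a drug-free growth control.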

M[…] ATCC 4698 = test: as above; details: M. luteus ATCC 4698, unit assumed
Method in brief: as §1

M[…] ATCC 9341 = test: as above; details: M. luteus ATCC 9341, unit assumed
Method in brief: as §1

STR[…] 508 = test: as above; details: S. agalactiae CMX 508, unit assumed
Method in brief: as §1

[9] = tested on: STREPTOCOCCUS BOVIS A-5169; test: as above; details: S. bovis A-5169, unit assumed
[10] = tested on: STREPTOCOCCUS PYOGENES EES61; test: as above; details: S. pyogenes EES61, unit assumed
[11] = tested on: STREPTOCOCCUS PYOGENES 930; test: as above; details: S. pyogenes 930, unit assumed
[12] = tested on: STREPTOCOCCUS PYOGENES PIU 2548; test: as above; details: S. pyogenes PIU 2548, unit assumed
ESCHERICHIA COLI JUHL = details: E. coli JUHL; BHI agar; unit assumed
ESCHERICHIA COLI SS = test: In vitro antibacterial activity, MIC, BHI agar dilution; details: E. coli SS, unit assumed
ESCHERICHIA COLI DC-2 = test: as above; details: E. coli DC-2, unit assumed
ESCHERICHIA COLI H560 = test: as above; details: E. coli H560, unit assumed
ESCHERICHIA COLI KNK 437 = details: E. coli KNK 437; BHI agar; unit assumed
[13] = tested on: ENTEROBACTER AEROGENES ATCC 13048; test: In vitro antibacterial activity, MIC, BHI agar dilution; details: E. aerogenes ATCC 13048, unit assumed
[14] = tested on: KLEBSIELLA PNEUMONIAE ATCC 8045; test: as above; details: K. pneumoniae ATCC 8045, unit assumed
[15] = tested on: PROVIDENCIA STUARTII CMX 640; details: P. stuartii CMX 640; BHI agar; unit assumed
[16] = tested on: PSEUDOMONAS AERUGINOSA BMH10; test: In vitro antibacterial activity, MIC, BHI agar dilution; details: P. aeruginosa BMH10, unit assumed
[17] = tested on: PSEUDOMONAS AERUGINOSA 5007; test: as above; details: P. aeruginosa 5007, unit assumed
[18] = tested on: PSEUDOMONAS AERUGINOSA K799/WT; test: as above; details: P. aeruginosa K799/WT, unit assumed
[19] = tested on: PSEUDOMONAS AERUGINOSA K799/61; test: as above; details: P. aeruginosa K799/61, unit assumed
PSEUDOMONAS CEPACIA 296I = test: as above; details: P. cepacia 296I, unit assumed
[20] = tested on: ACINETOBACTER CALCOACETICUS CMX 669; test: as above; details: A. calcoaceticus CMX 669, unit assumed
[21] = tested on: PSEUDOMONAS AERUGINOSA DPHD-5263; test: as above; details: P. aeruginosa DPHD-5263, unit assumed
[22] = tested on: PSEUDOMONAS AERUGINOSA DPHD-2862; test: as above; details: P. aeruginosa DPHD-2862, unit assumed
CANDIDA ALBICANS CCH 442 = test: as above; details: C. albicans CCH 442, unit assumed
[23] = tested on: MYCOBACTERIUM SMEGMATIS ATCC 114; test: as above; details: M. smegmatis ATCC 114, unit assumed

Structure (SMILES)	MIC [1]	MIC [2]	MIC [3]	MIC [4]	MIC [5]	MIC [6]	MIC [7]	MIC [8]	MIC (EN[…] ATCC 8043)	MIC (M[…] ATCC 4698)	MIC (M[…] ATCC 9341)	MIC (STR[…] 508)	MIC [9]	MIC [10]	MIC [11]	MIC [12]	MIC (ESCHERICHIA COLI JUHL)	MIC (ESCHERICHIA COLI SS)	MIC (ESCHERICHIA COLI DC-2)	MIC (ESCHERICHIA COLI H560)	further results
CC[C@H]1OC(=O)[C@H](C)C(=O)[C@H](C)[C@@H](O[C@@H]2O[C@H](C)C[C@H](N(C)C)[C@H]2O)[C@](C)(OC)C[C@@H](C)C2=N[C@H](COCc3ccc(C(=O)OC)cc3)CN3C(=O)O[C@@]1(C)[C@H]3[C@H]2C [Example 84]	0.2 µg/mL (≈ 0.245 µM)	0.2 µg/mL (≈ 0.245 µM)	> 100 µg/mL	0.2 µg/mL (≈ 0.245 µM)	0.2 µg/mL (≈ 0.245 µM)	0.2 µg/mL (≈ 0.245 µM)	> 100 µg/mL	0.39 µg/mL (≈ 0.478 µM)	0.05 µg/mL (≈ 0.0613 µM)	0.39 µg/mL (≈ 0.478 µM)	0.1 µg/mL (≈ 0.123 µM)	0.02 µg/mL (≈ 0.0245 µM)	≤ 0.005 µg/mL	0.02 µg/mL (≈ 0.0245 µM)	100 µg/mL (≈ 123 µM)	0.2 µg/mL (≈ 0.245 µM)	> 100 µg/mL	1.56 µg/mL (≈ 1.91 µM)	> 100 µg/mL	> 100 µg/mL	MIC (ESCHERICHIA COLI KNK 437): > 100 µg/mL; MIC [13]: > 100 µg/mL; MIC [14]: > 100 µg/mL; MIC [15]: > 100 µg/mL; MIC [16]: > 100 µg/mL; MIC [17]: > 100 µg/mL; MIC [18]: > 100 µg/mL; MIC [19]: 3.1 µg/mL (≈ 3.8 µM); MIC (PSEUDOMONAS CEPACIA 296I): > 100 µg/mL; MIC [20]: > 100 µg/mL; MIC [21]: > 100 µg/mL; MIC [22]: > 100 µg/mL; MIC (CANDIDA ALBICANS CCH 442): > 100 µg/mL; MIC [23]: 0.78 µg/mL (≈ 0.956 µM)
CC[C@H]1OC(=O)[C@H](C)C(=O)[C@H](C)[C@@H](O[C@@H]2O[C@H](C)C[C@H](N(C)C)[C@H]2O)[C@](C)(OC)C[C@@H](C)C2=N[C@H](COCc3ccnc4ccccc34)CN3C(=O)O[C@@]1(C)[C@H]3[C@H]2C [Example 85]	0.2 µg/mL (≈ 0.247 µM)	0.2 µg/mL (≈ 0.247 µM)	> 100 µg/mL	0.2 µg/mL (≈ 0.247 µM)	0.39 µg/mL (≈ 0.482 µM)	0.2 µg/mL (≈ 0.247 µM)	> 100 µg/mL	0.2 µg/mL (≈ 0.247 µM)	0.02 µg/mL (≈ 0.0247 µM)	0.78 µg/mL (≈ 0.964 µM)	0.02 µg/mL (≈ 0.0247 µM)	0.02 µg/mL (≈ 0.0247 µM)	0.01 µg/mL (≈ 0.0124 µM)	≤ 0.005 µg/mL	100 µg/mL (≈ 124 µM)	0.1 µg/mL (≈ 0.124 µM)	> 100 µg/mL	0.78 µg/mL (≈ 0.964 µM)	> 100 µg/mL	> 100 µg/mL	MIC (ESCHERICHIA COLI KNK 437): > 100 µg/mL; MIC [13]: > 100 µg/mL; MIC [14]: > 100 µg/mL; MIC [15]: > 100 µg/mL; MIC [16]: > 100 µg/mL; MIC [17]: > 100 µg/mL; MIC [18]: > 100 µg/mL; MIC [19]: 3.1 µg/mL (≈ 3.83 µM); MIC (PSEUDOMONAS CEPACIA 296I): 100 µg/mL (≈ 124 µM); MIC [20]: 100 µg/mL (≈ 124 µM); MIC [21]: > 100 µg/mL; MIC [22]: > 100 µg/mL; MIC (CANDIDA ALBICANS CCH 442): > 100 µg/mL; MIC [23]: 3.1 µg/mL (≈ 3.83 µM)
CC[C@H]1OC(=O)[C@H](C)C(=O)[C@H](C)[C@@H](O[C@@H]2O[C@H](C)C[C@H](N(C)C)[C@H]2O)[C@](C)(OC)C[C@@H](C)C2=N[C@H](COCCN3CCOCC3)CN3C(=O)O[C@@]1(C)[C@H]3[C@H]2C [Example 87]	1.56 µg/mL (≈ 2 µM)	1.56 µg/mL (≈ 2 µM)	> 100 µg/mL	1.56 µg/mL (≈ 2 µM)	1.56 µg/mL (≈ 2 µM)	1.56 µg/mL (≈ 2 µM)	> 100 µg/mL	1.56 µg/mL (≈ 2 µM)	0.39 µg/mL (≈ 0.499 µM)	1.56 µg/mL (≈ 2 µM)	0.1 µg/mL (≈ 0.128 µM)	0.2 µg/mL (≈ 0.256 µM)	0.05 µg/mL (≈ 0.064 µM)	0.2 µg/mL (≈ 0.256 µM)	> 100 µg/mL	3.1 µg/mL (≈ 3.97 µM)	> 100 µg/mL	1.56 µg/mL (≈ 2 µM)	> 100 µg/mL	> 100 µg/mL	MIC (ESCHERICHIA COLI KNK 437): > 100 µg/mL; MIC [13]: > 100 µg/mL; MIC [14]: > 100 µg/mL; MIC [15]: > 100 µg/mL; MIC [16]: > 100 µg/mL; MIC [17]: > 100 µg/mL; MIC [18]: > 100 µg/mL; MIC [19]: 3.1 µg/mL (≈ 3.97 µM); MIC (PSEUDOMONAS CEPACIA 296I): > 100 µg/mL; MIC [20]: > 100 µg/mL; MIC [21]: > 100 µg/mL; MIC [22]: > 100 µg/mL; MIC (CANDIDA ALBICANS CCH 442): > 100 µg/mL; MIC [23]: 12.5 µg/mL (≈ 16 µM)
